Measured values taken from patent US20070203215A1, “Methods & Compositions For Enhancing Pharmaceutical Treatments” (Taiji Biomedical, Inc., priority 1999, published 2007).

Key:
tumor-bearing mice = details: 20 mg/kg paclitaxel with the compound of Formula 2
[1] = tested on: P-gp-expressing Cell Lines; assay: Modulation of P-gp-mediated drug resistance in vitro (panel statements); format: cell-based, human
Description: (§1) The compound of Formula 2 was able to reverse resistance to all classes of P-gp substrates in a wide variety of tumor cell types with EC50s in the low nM range (Table 2). Similar results were obtained with etoposide in several models. Complete reversal of MDR was typically seen with Formula 2 doses between 0.25 and 1.0 μM. Examples with cells expressing extremely high levels of P-gp as a result of drug selection (CEM/VLB1000), moderate levels of P-gp from gene transduction (MDA/LCC6 ^MDR1), and low (intrinsic) levels of P-gp (HCT-15) are illustrated in Table 2. The compound of Formula 2 had no effect on doxorubicin or paclitaxel IC50s in non-P-gp-expressing CCRF-CEM and MDA/LCC6 cells, respectively (FIG. 1, for MDA/LCC6 cells).
(§2) Cell proliferation IC50s and MDR reversal EC50s were determined from 3-day dose-response curves carried out in triplicate in 96-well plates essentially as described by Monks et al. (J. Natl. Cancer Inst., 83:757-66, 1991). Cells were plated in standard growth medium at 2.5 or 5.0×10^4 per well (CCRF-CEM and CEM/VLB1000 respectively) or 5×10^3 per well (all other cell lines) in a final volume of 100 μl. After a 2 h incubation for non-adherent cells and overnight incubation for adherent cells, the initial cell density was determined by fluorescence readout of Alamar Blue metabolism. […] Final cell density was determined with Alamar Blue. […]

CYP2C8 = CYP2C8 (Homo sapiens, UniProt P10632); assay: Metabolism by P450 CYP2C8; format: in vitro ADME
Chain of CYP2C8 (P10632 whole entry): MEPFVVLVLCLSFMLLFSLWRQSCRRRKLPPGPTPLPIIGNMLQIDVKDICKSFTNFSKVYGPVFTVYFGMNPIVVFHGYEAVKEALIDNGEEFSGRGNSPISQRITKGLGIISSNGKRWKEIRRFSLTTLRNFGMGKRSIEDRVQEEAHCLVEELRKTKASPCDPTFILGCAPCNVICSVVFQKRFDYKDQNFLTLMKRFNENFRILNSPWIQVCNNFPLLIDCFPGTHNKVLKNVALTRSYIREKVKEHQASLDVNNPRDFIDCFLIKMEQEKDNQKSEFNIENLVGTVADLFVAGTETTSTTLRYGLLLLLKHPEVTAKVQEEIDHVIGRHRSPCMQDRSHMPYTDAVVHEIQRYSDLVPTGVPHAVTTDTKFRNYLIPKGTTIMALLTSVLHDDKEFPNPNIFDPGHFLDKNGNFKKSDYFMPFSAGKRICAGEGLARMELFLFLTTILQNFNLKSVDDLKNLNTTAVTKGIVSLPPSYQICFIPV
From the text: Two enzymes primarily responsible for metabolism of paclitaxel are P450 CYP3A4 and CYP2C8. Some P-gp inhibitors are also metabolized by P450 CYP 3A4, leading to inhibition of paclitaxel metabolism. This may contribute to PK interactions with paclitaxel.

[2] = Saquinavir in rat cerebrospinal fluid and brain after oral ONT-093 or vehicle; format: in vivo, Sprague Dawley rats; details: Group 3: after OC-144-093 20 mg/kg p.o.; 30 min after saquinavir dose; individual animals 3001-3004; 20 mg/kg
Description: Blood samples (ca 0.3 mL) were collected from 8 selected rats by jugular venipuncture during slight anesthesia pre-dose and at 0.25, 0.5, 1, 2, 4 and 8 post-dose (saquinavir dose). Cerebrospinal fluid (CSF) and brain tissue were collected terminally from the remaining 8 rats at ca 30 min following administration of the dose of saquinavir. Blood samples were collected into tubes containing EDTA and placed on wet ice pending centrifugation. Plasma, CSF and brain tissue samples were stored at ca −80° C. until analysis of saquinavir by LC/MS. The vehicle used was polyethylene glycol (PEG-400)1 Tween 20 (9:1; v:v).
A total of 16 male Sprague Dawley rats were received from Charles River Canada (Saint-Constant, Quebec). Animals were approximately 9 weeks of age at arrival and weighed ca 312-340 g. Four males were randomly assigned to each of Groups 1, 2, 3 and 4. On the day of dosing and following an overnight fast, animals were weighed (ca 305-323 g) and were administered their respective combination of doses. Animals of Groups 1 and 3 received a single oral dose of ONT-093 (20 mg/kg) by gavage at a dose volume of 2 mL/kg. Animals of Groups 2 and 4 received a single oral dose of the vehicle by gavage at a dose volume of 2 mL/kg. Approximately 30 min following administration of either ONT-093 or the vehicle, all animals received a single oral dose of saquinavir (20 mg/kg) by gavage at a dose volume of 1 mL/kg.
Following administration of saquinavir, blood samples (ca 0.3 mL in EDTA) were obtained from all rats of Groups 1 and 2 by jugular venipuncture during anesthesia with isoflurane (Ohmeda Pharmaceutical Products) at each of the following time-points: pre-dose (prior to administration of ONT-093 or vehicle) and 0.25, 0.5, 1, 2, 4 and 8 hr post-dose. Following administration of saquinavir, CSF was obtained from all animals of Groups 3 and 4 at 30 min following dose administration. CSF was collected (in tubes containing no anticoagulant) from the cistema magna during anesthesia with isoflurane. Following CSF collection, the animals were sacrificed by exsanguination via puncture of the vena cava and the brain was harvested from all these rats. Immediately following collection, all samples (blood, CSF and brain) were placed on ice until further processing or storage. Blood samples were centrifuged (ca 3080 g at ca 4° C. for 10 min) and the resulting plasma samples were stored at ca −80° C. pending analysis. CSF samples and brains were stored at ca −80° C. pending analysis.
Plasma samples, CSF samples and brains were analyzed for unchanged saquinavir using an LC/MS assay. Pharmacokinetic analysis was performed on plasma concentrations using the PhAST Software Program, Version 2.2-00 (Phoenix International Life Sciences Inc.). The highest observable concentration was assumed to be the peak concentration (Cmax); Time to Cmax was denoted Tmax. The area under the plasma concentration versus time-curve from time zero to the last measurable concentration [AUC(tf] was calculated by the linear trapezoidal method. Where applicable, numerical values were subjected to calculation of group means and % CV. Student-T-test with Satterthwaite approximation was performed on AUC and Cmax values to compare ONT-093 treated animals versus vehicle treated animals using SAS software program, Version 6.12 (SAS Institute Inc., Gary, N.C.). Where values were below limit of quantification, zero was used for pharmacokinetic analysis. The bioavailability (F) of saquinavir when administered with ONT-093 was calculated relative to the AUC values obtained from the animals receiving saquinavir following administration of the vehicle.

[3] = tested on: MDA/LCC6 human breast carcinoma xenografts; assay: In vivo antitumor efficacy, non-P-gp-expressing MDA/LCC6 xenografts; design: species or system SCID mice; details: non-P-gp expressing tumor cells, FIG. 2
Description: Anti-tumor efficacy experiments with orthotopic MDA/LCC6 and MDA/LCC6^MDR1 tumors were conducted in female SCID/RAG2 mice. Ascites propagated cells (2×10^6 in 50 μl) were injected into mammary fat pads bilaterally on day 0 before randomization into groups of 5 mice per group. Paclitaxel (12 mg/kg/dose) was administered QD i.v. (tail vein) in 200 μl saline/Cremophor/ethanol (8/1/1 by volume) on days 5, 12, 19, and 26. The compound of Formula 2-free base (30 mg/kg/dose) was administered BID p.o. by gavage in 100 μl PEG 400/Tween 20 (9/1 by volume) on days 4-6, 11-13, 18-20, and 25-27. Mean body weights were recorded at least every other day. Tumor weight was monitored approximately every other day by caliper measurements and calculated according to the formula (Tumor weight =(length×width^2)÷2). This conversion formula was verified by comparing the calculation derived tumor weights to excised and weighed tumors. Animals bearing ulcerated tumors or where tumor weight exceeded 10% of the animal's body weight were terminated. The weights of the bilateral tumors were averaged for each mouse and mean tumor weights for each treatment group±standard error of the mean were calculated. Statistical analysis was carried out by Mann-Whitney test using GraphPad Prism software (San Diego, Calif.).

[4] = PK interaction study, i.v. plasma paclitaxel levels; format: in vivo, SCID/RAG2 mice; details: three oral doses of 30 mg/kg before i.v. 16 mg/kg paclitaxel, FIG. 5
Description: At the indicated times after paclitaxel administration, 3 mice per time point were anesthetized with CO2 and blood was removed by cardiac puncture into Microtainer tubes containing EDTA. Plasma samples generated by centrifugation were extracted with acetonitrile and the analysis for paclitaxel content was carried out by HPLC using a Waters 600E multisolvent delivery system, 717 plus autosampler and 996 photodiode array detector. Baccatin III (0.8 nmoles/200 μl plasma) was used as the internal standard (IS) and added to plasma samples during extraction with acetonitrile. Standard curve samples as well as quality control samples were also prepared from spiked control plasma in order to verify the accuracy of the HPLC analysis. […] Waters, Milford, Mass.) with double distilled water (A), and acetonitrile (B), using the following gradient profile: t=0 min, 10% B; t=5 min, 10% B; t=30 min, 65% B; t=40 min, 65% B; t=45 min, 10% B; t=50 min, 10% B. The gradient was formed using a high pressure mixer and the flow rate was 1.0 ml min^−1. A Waters 996 Photo Diode Array Detector was used to scan at multiple wavelengths and chromatograms were processed for traces obtained at 230 nm.

MDA/LCC6 cells = assay: Effect on paclitaxel IC50 in non-P-gp-expressing cells; format: cell-based, human; details: breast carcinoma cells that do not express P-gp, FIG. 1
Description: as §1, §2

[5] = Blood-brain barrier penetration of loperamide, mouse hot-plate test; format: in vivo, mice
From the text: These increases were dose dependent with respect to loperamide.

[6] = mouse, in vivo
Description: Non-tumor bearing athymic mice were treated with the compound of Formula 2 and (or) paclitaxel as described.

CCOC/C=C/c1ccc(-c2nc(-c3ccc(NC(C)C)cc3)c(-c3ccc(NC(C)C)cc3)[nH]2)cc1 [Formula 2 compound]
Tumor formation (tumor-bearing mice): completely prevented tumor formation at several injection sites | MDR reversal potency after incubation in human plasma ([1]; human plasma): retained full MDR reversal potency | EC50s for reversal of resistance to all classes of P-gp substrates ([1]; wide variety of tumor cell types): low nM range | Metabolism by P450 CYP2C8 (CYP2C8): not metabolized | Saquinavir Concentration in CSF [2]: BLQ | In vivo anti-tumor activity of paclitaxel [3]: did enhance | Effect on i.v. plasma paclitaxel levels [4]: no effect | In vitro anti-tumor activity of paclitaxel (MDA/LCC6 cells): did not enhance | Effect on hot-plate escape time ([5]; co-administration with loperamide, either 20 mg or 40 mg, dose dependent with respect to loperamide): significant increases | Mean time to escape the hot-plate ([5]; in the absence of loperamide): 20 s | Effect on paclitaxel toxicity [6]: decreased paclitaxel toxicity
